Test results taken from US5760048A, “Alpha-mercaptoacrylic acid derivatives having calpain inhibitory activity” (Warner-Lambert Company, priority 1996, dated 1998).
“Also recorded” adds a separate entry of the source. Where two headings read alike, the source gives them in different places. Square brackets hold non-standard residues; d marks the D form. Peptide text beside a SMILES is read from it. Nle = CCCC[C@H](N)C(=O)O

What was measured:
calpain I [1] = molecular target: T1, calpain I (Homo sapiens, UniProt P07384); experiment: Assay of Calpain Activity (casein substrate, microplate, Coomassie blue); assay type: biochemical; parameters: Calpain I was purified from human erythrocytes; from tissue; host or cells: human erythrocytes
T1 sequence (P07384 1-714): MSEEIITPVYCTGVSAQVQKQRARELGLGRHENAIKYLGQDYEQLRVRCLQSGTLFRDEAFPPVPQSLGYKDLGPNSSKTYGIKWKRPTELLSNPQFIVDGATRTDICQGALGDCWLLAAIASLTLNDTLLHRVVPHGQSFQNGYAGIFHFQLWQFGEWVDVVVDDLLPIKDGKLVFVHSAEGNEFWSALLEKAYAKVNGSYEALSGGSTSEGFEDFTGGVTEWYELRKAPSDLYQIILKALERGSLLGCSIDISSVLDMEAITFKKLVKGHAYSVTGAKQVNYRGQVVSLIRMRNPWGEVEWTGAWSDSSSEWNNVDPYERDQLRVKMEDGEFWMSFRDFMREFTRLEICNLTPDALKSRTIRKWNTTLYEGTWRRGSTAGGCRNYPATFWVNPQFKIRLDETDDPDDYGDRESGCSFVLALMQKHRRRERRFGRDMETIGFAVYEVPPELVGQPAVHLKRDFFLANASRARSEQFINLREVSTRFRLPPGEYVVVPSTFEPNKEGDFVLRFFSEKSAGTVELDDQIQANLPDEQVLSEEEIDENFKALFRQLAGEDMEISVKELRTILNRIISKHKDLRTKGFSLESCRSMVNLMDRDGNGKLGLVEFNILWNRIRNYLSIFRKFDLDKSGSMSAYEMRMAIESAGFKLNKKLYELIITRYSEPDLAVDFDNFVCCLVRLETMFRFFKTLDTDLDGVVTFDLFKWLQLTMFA
T1 sequence (P04632 1-268 partner): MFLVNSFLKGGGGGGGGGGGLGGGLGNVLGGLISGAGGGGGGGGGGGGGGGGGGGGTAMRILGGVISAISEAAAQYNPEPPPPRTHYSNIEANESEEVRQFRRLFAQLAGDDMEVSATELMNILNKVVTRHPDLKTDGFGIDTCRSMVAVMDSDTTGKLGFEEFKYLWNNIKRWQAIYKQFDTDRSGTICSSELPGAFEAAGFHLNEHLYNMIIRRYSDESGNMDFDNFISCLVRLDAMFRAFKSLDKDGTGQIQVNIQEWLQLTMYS
Protocol: (§1) In 250 μL of reaction mixture, substrate casein (0.5 mg/mL) was incubated with 0.01 unit (80-120 ng) calpain I, 20 mM dithiothreitol (DTT), 50 mM Tris-HCl (pH 7.4 at 25° C.), and 4 mM CaCl2 at 25° C. for 60 minutes. Two 100-μL aliquots were taken for Coomassie blue binding analysis to quantify the remaining casein.
Calpain I was assayed as described (α-mercaptoacrylic acid). […] Inhibition of these proteases are presented as IC50.

[2] = tested on: Fetal rat cortical cell cultures; experiment: Assay of Lactate Dehydrogenase (LDH): NMDA-induced LDH release; assay type: cell-based; conditions: 500 μM NMDA; 200 μM calpain inhibiting compound; FIG. II
Protocol: Seventeen-day-old cultures were pretreated with 200 μM calpain inhibiting compound (when added) for 1 hour before treatment of 500 μM N-methyl-D-aspartate (NMDA) for 30 minutes (in the absence or the presence of the compound).

trypsin = molecular target: T2, trypsin (Bos taurus, UniProt P00760); experiment: Selectivity: trypsin protease assay (casein substrate); assay type: biochemical, bovine; conditions: Table II; read-out: Inhibitory Activity of Thiol-Acrylates, Trypsin (IC50)
T2 construct: purchased Sigma T8003; host or cells: bovine pancreas
T2 sequence (P00760 24-246): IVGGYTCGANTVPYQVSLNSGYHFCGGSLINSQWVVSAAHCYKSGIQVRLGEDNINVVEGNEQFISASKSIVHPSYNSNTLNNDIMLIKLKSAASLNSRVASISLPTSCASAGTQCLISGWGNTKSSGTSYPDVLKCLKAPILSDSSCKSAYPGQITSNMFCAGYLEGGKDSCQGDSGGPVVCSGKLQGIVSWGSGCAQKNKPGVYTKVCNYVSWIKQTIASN
Protocol: (§2) Calpain I was assayed as described (α-mercaptoacrylic acid). Ten to 20 ng papain (papaya latex, Sigma, P3125), 1.25 μg trypsin (bovine pancreas, Sigma, T8003), and 5 μg thermolysin (Bacillus thermoproteolyticus, Sigma, P1512) were assayed using 0.5 mg/mL casein as substrate in the microplate format (250 μL reaction volume), essentially as described by Buroker-Kilgore M., Wang K. K. W., Anal Biochem 1993;208:387-392. Inhibition of these proteases are presented as IC50.

papain = molecular target: T3, papain (Carica papaya, UniProt P00784); experiment: Selectivity: papain protease assay (casein substrate); assay type: biochemical; conditions: Table II; read-out: Inhibitory Activity of Thiol-Acrylates, Papain (IC50)
T3 construct: purchased Sigma P3125; host or cells: papaya latex
T3 sequence (P00784 134-345): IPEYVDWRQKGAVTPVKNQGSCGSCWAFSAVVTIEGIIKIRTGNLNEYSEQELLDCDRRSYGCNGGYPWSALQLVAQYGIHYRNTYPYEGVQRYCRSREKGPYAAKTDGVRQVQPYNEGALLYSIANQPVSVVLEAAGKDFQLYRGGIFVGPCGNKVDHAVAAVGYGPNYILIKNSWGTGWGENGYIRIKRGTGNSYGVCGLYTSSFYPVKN
Protocol: as §2

thermolysin = molecular target: T4, thermolysin (Bacillus thermoproteolyticus, UniProt P00800); experiment: Selectivity: thermolysin protease assay (casein substrate); assay type: biochemical
T4 construct: purchased Sigma P1512; host or cells: Bacillus thermoproteolyticus
Protocol: as §2

[3] = tested on: spectrin breakdown in rat cortical cell cultures; experiment: Spectrin Breakdown Measurement (immunoblot); assay type: cell-based; conditions: NMDA-treated cortical cells, 4-hour post-NMDA
Protocol: Rat cortical cell cultures were treated with NMDA in the absence or presence of calpain inhibiting compounds as described in "Assay of LDH" above. At the end of the 4-hour post-NMDA incubation, cells were lysed with 300 μL buffer containing 20 mM Tris-HCL (pH 7.4 at 4° C.), 1% SDS, 5 mM EGTA, 5 mM EDTA, 1 mM DTT, and various protease inhibitors. Total cellular protein was precipitated by 100 μL of 100% trichloroacetic acid. The samples were centrifuged and the pelleted protein solubilized with 50 μl of 3M Tris base. […] The blots were then probed with rabbit antibrain spectrin antibody (primary antibody) followed by alkaline phosphatase-conjugated goat antirabbit immunoglobulin G antibody (secondary antibody). […] The SBP were quantified by densitometry (BioRad Model 620).

calpain I [4] = molecular target: T1, calpain I; experiment: Casein Breakdown by calpain I (SDS-PAGE); assay type: biochemical; parameters: casein substrate; conditions: 30 μM compound, 0.8 nM calpain I, all time points up to 120 minutes
Protocol: Casein (15 μM) was incubated with 0.8 nM calpain I, 15 mM DTT, 45 mM Tris-HCl (pH 7.4 at 25° C.) and in the presence or the absence of compound Example 3 (30 μM) for up to 120 minutes. Aliquots of the samples were taken at several time points and subjected to SDS-polyacrylamide gel electrophoresis (SDS-PAGE) as described by Laemmli U. K., Nature 1970;[…]. Casein and its fragments were visualized by Coomassie G250 staining of the gel.

calpain I [5] = molecular target: T1, calpain I; experiment: Calpain inhibition after treatment with rabbit liver esterase; assay type: biochemical; parameters: casein substrate; conditions: FIG. I
Protocol: as §1, with “Calpain I was purified from human erythrocytes as described by Wang K. K. W., Roufogalis B. D., Villalobo A., Arch Biochem Biophys 1988;267:317-327.Calpain activity was assayed in a 96-well microplate format (Buroker-Kilgore M., Wang K. K. W., Anal Biochem 1993;208:387-392). In” for “In”
Various concentrations of the compound of Example 6 (250 nM to 2.5 mM) were pretreated with 0.2 unit rabbit liver esterase (Sigma E9636) in 50 μL containing 50 mM Tris-HCl (pH 7.4 at 25° C.), 5 mM DTT at 25° C. for 60 minutes. The mixture was then tested for calpain inhibition with the calpain assay described above.
The esterase presumably hydrolyzed the only ester bond in the molecule, producing the free acid compound which is identical to the compound of Example 3.

myocardiac infraction = conditions: dogs, coronary reperfusion after acute myocardiac infraction; cited from earlier work
restenosis = conditions: in vivo; cited from earlier work
smooth muscle cells = conditions: cited from earlier work
[6] = Table I, 4 mM CaCl2, pH 7.4, 25° C., 60 minutes, read-out: Inhibitory Activity Against Human Calpain I IC50

T4 sequence (P00800 233-548): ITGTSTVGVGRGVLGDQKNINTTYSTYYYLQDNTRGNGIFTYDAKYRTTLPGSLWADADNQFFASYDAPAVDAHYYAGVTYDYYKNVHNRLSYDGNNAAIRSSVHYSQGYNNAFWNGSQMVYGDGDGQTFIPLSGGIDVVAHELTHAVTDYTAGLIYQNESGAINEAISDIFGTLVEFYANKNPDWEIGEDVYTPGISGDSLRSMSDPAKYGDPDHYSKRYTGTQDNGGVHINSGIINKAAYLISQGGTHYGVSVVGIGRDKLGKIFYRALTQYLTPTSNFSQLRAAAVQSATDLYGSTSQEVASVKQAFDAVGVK

With O=C(O)/C(S)=C/c1ccc2ccccc2c1 [Example 3, (Z)-2-Propenoic Acid, 2-mercapto-3-(7-naphthalenyl)] the IC50 (calpain I [1]; [6]) was 2.6 µM, the IC50 (calpain I [1]; Table II (selectivity), read-out: Inhibitory Activity of Thiol-Acrylates, Calpain (IC50)) was 2.4 µM and the “block of NMDA-induced LDH release (in words)” value [2] was “partially blocked”. It also gave an IC50 (trypsin) of over 200 µM, an IC50 (papain) of over 200 µM and an IC50 (thermolysin) of 394 µM. The “spectrin breakdown product (SBP) formation, 150 kDa and 145 kDa (in words)” value [3] was “partially blocked SBP formation” and the “degradation of casein by calpain I (in words)” value (calpain I [4]) was “almost completely blocked the degradation of casein at all time points”.
With CCOC(=O)/C(S)=C/c1ccc2ccccc2c1 [Example 6, Ethyl 2-Propenoic Acid, (Z)-2-mercapto-3-(2-naphthalenyl)-, Ethyl Ester] the IC50 (calpain I [1]; [6]) was over 500 µM, the “inhibition of calpain upon preincubation with esterase (in words)” value (calpain I [5]; 0.2 unit rabbit liver esterase, 60 minutes) was “shows activity only after it is hydrolyzed by cellular esterase; also recorded: strong inhibition on calpain” and the “inhibition of calpain I without esterase (in words)” value (calpain I [5]; as high as 500 μM, no esterase) was “did not inhibit calpain I”.
In the case of CC(C)CCNC(=O)[C@H](CC(C)C)NC(=O)[C@H]1O[C@@H]1C(=O)O [Example E64c], the size of infract (myocardiac infraction) is listed as “significantly reduce the size of infract”.
In the case of CCCC[C@@H](C=O)NC(=O)[C@H](CC(C)C)NC(=O)[C@H](CC(C)C)NC(C)=O [calpain inhibitor I] (Ac-Leu-Leu-[Nle]-aldehyde), the inhibition of restenosis (restenosis) is given as “inhibit restenosis” and the “proliferation and migration of smooth muscle cells to the neoinitimal layer” value (smooth muscle cells) is given as “controlling proliferation and migration of smooth muscle cells”.
